We go through 9 compounds from patent publication EP4640223A1, “PHARMACEUTICAL COMPOSITION FOR PREVENTION OR TREATMENT OF CARDIOVASCULAR DISEASE, COMPRISING SODIUM-GLUCOSE COTRANSPORTER-2 INHIBITOR AND ANGIOTENSIN II RECEPTOR BLOCKER” (THPharm Corp., priority 2022, dated 2024).

Series [1] in a line: Drug-drug compatibility test under accelerated stability conditions. The note with it: for flexible substance / content (ARB) / content (SGLT-2 inhibitor): HPLC; for content (ARB): first figure of the cell; for property: color, clumping, etc.; for content (SGLT-2 inhibitor): second figure of the cell. The format is physicochemical. As to the method:
Specifically, after storing a mixture of ARB and SGLT-2 inhibitor for 2 weeks under accelerated stability test conditions (40 ± 2°C/75 ± 5% relative humidity), changes in the contents of each ingredient and flexible substance and changes in properties (color, clumping, etc.) were analyzed. Olmesartan, Valsartan, and Telmisartan were used as ARBs, and Empagliflozin, Dapagliflozin (Dapagliflozin propanediol monohydrate), and Canagliflozin were used as SGLT-2 inhibitors.

Series [2] relates to angiotensin converting enzyme (ACE). As to the kind of experiment: ACE mRNA expression (RT-PCR, normalized to GAPDH) in LPS inflammation-induced H9c2 cells. It is filed as cell-based, rat. As to the method: Specifically, LPS inflammation-induced H9c2 cells in Experimental Example 1-2 were treated with 10 or 25 µM Telmisartan and 10 or 50 µM Olmesartan, and then treated with 200 µl of chloroform together with 1 ml of TRIZol (Sigma, USA), gently mixed, and separated for 10 minutes, and then centrifuged at 4°C and 10,000 rpm for 10 minutes. After centrifugation, only the supernatant from the tube was taken and transferred to a new sterile tube, and the supernatant was treated with 500 µl of isopropanol to precipitate RNA. The precipitated RNA was centrifuged at 4°C, 10,000 rpm for 10 minutes, and then the supernatant except for the pellets in the tube was fully removed, and the RNA pellets were treated with 500 µl of 75% ethyl alcohol and thoroughly washed. The washed pellets were centrifuged at 4°C, 10,000 rpm for 5 minutes, and then the supernatant except the pellets was fully removed. The tube containing the pellets from which the supernatant had been cleanly removed was treated with diethyl pyrocarbonate (DEPC)-water and stored at - 80°C for use in an RT-PCR experiment.
RT-PCR was performed by synthesizing cDNA from mRNA using an RT-PCR kit containing DNA polymerase, buffer, dNTP, and tracking dye, and then using ACE primers in Table 1 under the conditions in Table 2 for 35 cycles. The PCR products were electrophoresed on a […] agarose gel, identified using a UV transilluminator, and expressed as normalized to GAPDH for quantitative comparison.
In order to confirm the effect of each combination or single substance on the mRNA expression of ACE, the experimental samples in Table 3 were treated to H9c2 cells induced with LPS inflammation in Experimental Example 1-2, respectively, and then the mRNA expression of ACE was evaluated in the same manner as in Experimental Example 1-3.

The conditions of series [3]: Dapagliflozin 10 mg in the presence of Telmisartan 80 mg, repeated oral, steady state.
The nature of series [4]: 4-week repeated oral administration toxicity. The note with it: daily for 4 weeks, blood test. It is filed as in vivo, Sprague-Dawley rats. As to the method:
Specifically, groups were configured in the same manner as in Experimental Example 4-1, and the combinations were administered orally daily for 4 weeks to 5 male and 5 female 6-week-old Sprague-Dawley rats per group. During the test, general symptom observation, blood test, and body weight measurement were performed, and after the observation period ended, the rats were euthanized and autopsied.

The next series concerns A549 cells. As to the kind of experiment: Cell survival rate (MTT) in A549 cells. The format is cell-based. The note with it: after 24 hours and 48 hours, up to a concentration of 25 µM. As to the method:
(§1) Specifically, A549 cells were obtained from the Korean Cell Line Bank (KCLB) and subcultured using a RPMI-1640 medium supplemented with 10% fetal bovine serum (FBS) and 1% Penicillin, and MDCK cells were obtained from ATCC and subcultured using a DMEM medium supplemented with 10% FBS. 200 µl each of the A549 cells and MDCK cells incubated in an incubator under 37°C and 5% CO2 conditions were dispensed at 2 × 10^4 cells/well in a 96-well plate, and then a control group was treated with 100 µl of the medium, and experimental groups were treated with 1.25, 25, 50, and 100 µM of Telmisartan or Olmesartan, respectively. After 24 hours and 48 hours, all of the wells were treated with 50 µl each of a 2 mg/ml MTT reagent and incubated in an incubator for 3 hours, and then each well was added with 500 µl of DMSO, wrapped in foil, stirred for 30 minutes at room temperature, and the absorbance was measured at 570 nm to obtain the cell survival rate.

The next series deals with MDCK cells. As to the kind of experiment: Cell survival rate (MTT) in MDCK cells. The format is cell-based. The note with it: after 24 hours and 48 hours, up to a concentration of 25 µM. As to the method: as §1
The mark [5] stands for this setting: Acceleration 1 week, 40 ± 2°C/75 ± 5% relative humidity.
Where [6] appears, read: Acceleration 2 week, 40 ± 2°C/75 ± 5% relative humidity.
The mark [7] stands for this setting: experimental samples at the concentrations of Table 3.
[8] abbreviates: alone, low-concentration administration groups of 2.5 µM to 10 µM.

As to `CCCc1nc2c(C)cc(-c3nc4ccccc4n3C)cc2n1Cc1ccc(-c2ccccc2C(=O)O)cc1` [Com. Ex. 16, Telmisartan], in series [1] (setting [5]), the flexible substance is reported as 0.1 or less, the “content (ARB)” value stood at 100.1% and the property entry is on record as “suitable”. Further, in series [1] (setting [6]), the flexible substance is reported as 0.1 or less, the “content (ARB)” value was 100% and the property result was “suitable”. Moreover, in series [1] (Initial), the flexible substance is 0.1 or less, the “content (ARB)” value came to 100.1% and the property result is listed as “suitable”.

For `OC[C@H]1O[C@@H](c2ccc(Cl)c(Cc3ccc(O[C@H]4CCOC4)cc3)c2)[C@H](O)[C@@H](O)[C@@H]1O` [Com. Ex. 17, Empagliflozin], in series [1] (setting [5]), the flexible substance is 1.0 or less, the “content (SGLT-2 inhibitor)” value is 97.3% and the property result was “suitable”. Moreover, in series [1] (setting [6]), the flexible substance is on record as 1.0 or more, the “content (SGLT-2 inhibitor)” value amounted to 95.1% and the property result was “suitable”. In series [1] (Initial), the flexible substance was 0.1 or less, the “content (SGLT-2 inhibitor)” value was 99.9% and the property result was “suitable”.

For `CCCCC(=O)N(Cc1ccc(-c2ccccc2-c2nnn[nH]2)cc1)[C@H](C(=O)O)C(C)C` [Com. Ex. 20, Valsartan], in series [1] (setting [5]), the flexible substance is 0.1 or more, the “content (ARB)” value is recorded as 99.4% and the property result is on record as “suitable”. For the same compound, in series [1] (setting [6]), the flexible substance is 0.1 or more, the “content (ARB)” value worked out at 99.2% and the property result was “suitable”. Also, in series [1] (Initial), the flexible substance is 0.1 or less, the “content (ARB)” value is recorded as 99.7% and the property result is “suitable”.

Take `Cc1ccc([C@@H]2O[C@H](CO)[C@@H](O)[C@H](O)[C@H]2O)cc1Cc1ccc(-c2ccc(F)cc2)s1` [Com. Ex. 21, Canagliflozin]: the flexible substance in series [1] (setting [5]) is recorded as 1.0 or less; in series [1] (setting [6]), 5.0 or more; in series [1] (Initial), 0.1 or less. Moreover, the figures for the “content (SGLT-2 inhibitor)” value in series [1] (setting [5]), in series [1] (setting [6]) and in series [1] (Initial) were 95.2%, 89.2% and 99.5%, respectively. Moreover, the property entry in series [1] (setting [5]) is reported as “unsuitable”; in series [1] (setting [6]), “unsuitable”; in series [1] (Initial), “suitable”.

For the compound `OC[C@H]1O[C@@H](c2ccc(Cl)c(Cc3ccc(O[C@H]4CCOC4)cc3)c2)[C@H](O)[C@@H](O)[C@@H]1O` [Comparative Example 8, Empagliflozin], in series [2] (setting [7]), the “mRNA expression of ACE” value is given as “decrease below the normal level”.

With `CCCc1nc2c(C)cc(-c3nc4ccccc4n3C)cc2n1Cc1ccc(-c2ccccc2C(=O)O)cc1` [Comparative Example 14, Telmisartan], the “mRNA expression of ACE” value in series [2] (setting [7]) is recorded as “decrease below the normal level”.

In the case of `CCOc1ccc(Cc2cc([C@@H]3O[C@H](CO)[C@@H](O)[C@H](O)[C@H]3O)ccc2Cl)cc1` [Dapagliflozin, (1S)-1,5-anhydro-1-C-{4-chloro-3-[(4-ethoxyphenyl)methyl]phenyl}-D-glucitol], the “Cmax T/R ratio” value in series [3] (90% confidence interval 0.93 to1.12) amounted to 1.02. Besides, the “AUC T/R ratio” value in series [3] (90% confidence interval 0.97 to 1.03) amounted to 1.00. For the same compound, the GLU result in series [4] is “decreased”. Further, in series [2] (setting [8]), the “mRNA expression of ACE” value was “did not decrease to a normal level”.

In the case of `OC[C@H]1O[C@@H](c2ccc(Cl)c(Cc3ccc(O[C@H]4CCOC4)cc3)c2)[C@H](O)[C@@H](O)[C@@H]1O` [Empagliflozin, (1S)-1,5-anhydro-1-C-[4-chloro-3-[[4-[[(3S)-tetrahydro-3-furanyl]oxy]phenyl]methyl]phenyl]-D-glucitol], in series [2] (setting [8]), the “mRNA expression of ACE” value is recorded as “did not decrease to a normal level”.

With `CCCc1nc(C(C)(C)O)c(C(=O)O)n1Cc1ccc(-c2ccccc2-c2nnn[nH]2)cc1` [Olmesartan], the cell survival rate entry in the series on A549 cells and in the series with MDCK cells was “no effect” in each case.
